In patent publication US20220396565A1 (Hoffmann-La Roche Inc., priority 2020, published 2022):
Counter-ions that a name gives are not always drawn.

What follows are compounds tested on Acinetobacter baumannii ATCC17961 (assay: Antimicrobial susceptibility testing: 90% growth inhibitory concentration (IC90) determination, Iso-Sensitest broth). Settings: Acinetobacter baumannii, ATCC17961, 90% growth inhibitory concentration, Acinetobacter baumannii ATCC17961, Iso-Sensitest broth; read-out: ATCC 17961 IC90.
Format: cell-based
In short: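 Twofold serial dilutions (e.g. 10 to 0.02 μM final) were tested in Iso-Sensitest broth against ~5×10^(5) CFU/ml at 35±2 °C. OD600 was read every 20 min over 16 h. IC90 was derived from growth inhibition during the logarithmic phase.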

| IC90 [nM] | SMILES |
| --- | --- |
| 180 | COc1ccc(-c2cnc(C(=O)Nc3ccc(C(=O)N4CCC(NC(=O)C5CCNCC5)C4)c(Cl)c3)n2C)c(F)c1F (stereo not shown) [Example 110, N-[1-[2-chloro-4-[[5-(2,3-difluoro-4-methoxy-phenyl)-1-methyl-imidazole-2-carbonyl]amino]benzoyl]pyrrolidin-3-yl]piperidine-4-carboxamide formate] |
| 300 | COc1ccc(-c2cnc(C(=O)Nc3ccc(C(=O)N4CCC(NC(=O)CCOCCN)C4)c(Cl)c3)n2C)c(F)c1F (stereo not shown) [Example 111, N-[4-[3-[3-(2-aminoethoxy)propanoylamino]pyrrolidine-1-carbonyl]-3-chloro-phenyl]-5-(2,3-difluoro-4-methoxy-phenyl)-1-methyl-imidazole-2-carboxamide formate] |
| 230 | COc1ccc(-c2cnc(C(=O)Nc3ccc(C(=O)N4CC5(C4)CN(C(=O)[C@@H]4C[C@@H](O)CN4)C5)c(Cl)c3)n2C)c(F)c1F [Example 112, N-[3-chloro-4-[2-[(2S,4R)-4-hydroxypyrrolidine-2-carbonyl]-2,6-diazaspiro[3.3]heptane-6-carbonyl]phenyl]-5-(2,3-difluoro-4-methoxy-phenyl)-1-methyl-imidazole-2-carboxamide] |
| 140 | COc1ccc(-c2cnc(C(=O)Nc3ccc(C(=O)N4CCN(C(=O)C5(O)CCNCC5)CC4)c(C)c3)n2C)c(Cl)c1F [Example 118, 5-(2-chloro-3-fluoro-4-methoxy-phenyl)-N-[4-[4-(4-hydroxypiperidine-4-carbonyl)piperazine-1-carbonyl]-3-methyl-phenyl]-1-methyl-imidazole-2-carboxamide formate] |
| 120 | COc1ccc(-c2cnc(C(=O)Nc3ccc(C(=O)N4CCN(C(=O)C5CC6(CNC6)C5)CC4)c(C)c3)n2C)c(Cl)c1F [Example 119, N-[4-[4-(2-azaspiro[3.3]heptane-6-carbonyl)piperazine-1-carbonyl]-3-methyl-phenyl]-5-(2-chloro-3-fluoro-4-methoxy-phenyl)-1-methyl-imidazole-2-carboxamide; formic acid] |
| 60 | COc1ccc(-c2cnc(C(=O)Nc3ccc(C(=O)N4CCN(C(=O)C5CCN(C(=O)CN(C)C)CC5)CC4)c(Cl)c3)n2C)c(F)c1F [Example 120, N-[3-chloro-4-[4-[1-[2-(dimethylamino)acetyl]piperidine-4-carbonyl]piperazine-1-carbonyl]phenyl]-5-(2,3-difluoro-4-methoxy-phenyl)-1-methyl-imidazole-2-carboxamide] |
| 40 | COc1ccc(-c2cnc(C(=O)Nc3ccc(C(=O)N4CCN(C(=O)CCCN)CC4)c(Cl)c3)n2C)c(F)c1F [Example 121, N-[4-[4-(4-aminobutanoyl)piperazine-1-carbonyl]-3-chloro-phenyl]-5-(2,3-difluoro-4-methoxy-phenyl)-1-methyl-imidazole-2-carboxamide; formic acid] |
| 90 | COc1ccc(-c2cnc(C(=O)Nc3ccc(C(=O)N4CCN(C(=O)CCCC(N)=O)CC4)c(Cl)c3)n2C)c(F)c1F [Example 122, N-[4-[4-(5-amino-5-oxo-pentanoyl)piperazine-1-carbonyl]-3-chloro-phenyl]-5-(2,3-difluoro-4-methoxy-phenyl)-1-methyl-imidazole-2-carboxamide] |
| 40 | COc1ccc(-c2cnc(C(=O)Nc3ccc(C(=O)N4CCN(C(=O)CCN)CC4)c(Cl)c3)n2C)c(F)c1F [Example 123, N-[4-[4-(3-aminopropanoyl)piperazine-1-carbonyl]-3-chloro-phenyl]-5-(2,3-difluoro-4-methoxy-phenyl)-1-methyl-imidazole-2-carboxamide formate] |
| 40 | COc1ccc(-c2cnc(C(=O)Nc3ccc(C(=O)N4CCN(C(=O)CCCCN)CC4)c(Cl)c3)n2C)c(F)c1F [Example 124, N-[4-[4-(5-aminopentanoyl)piperazine-1-carbonyl]-3-chloro-phenyl]-5-(2,3-difluoro-4-methoxy-phenyl)-1-methyl-imidazole-2-carboxamide formate] |
| 110 | COc1ccc(-c2cnc(C(=O)Nc3ccc(C(=O)N4CCN(C(=O)C5CCC(=O)NC5)CC4)c(Cl)c3)n2C)c(F)c1F (stereo not shown) [Example 125, N-[3-chloro-4-[4-(6-oxopiperidine-3-carbonyl)piperazine-1-carbonyl]phenyl]-5-(2,3-difluoro-4-methoxy-phenyl)-1-methyl-imidazole-2-carboxamide] |
| 110 | COc1ccc(-c2cnc(C(=O)Nc3ccc(C(=O)N4CCN(C(=O)C5CCC(=O)N5)CC4)c(Cl)c3)n2C)c(F)c1F (stereo not shown) [Example 126, N-[3-chloro-4-[4-(5-oxopyrrolidine-2-carbonyl)piperazine-1-carbonyl]phenyl]-5-(2,3-difluoro-4-methoxy-phenyl)-1-methyl-imidazole-2-carboxamide] |
| 100 | COc1ccc(-c2cnc(C(=O)Nc3ccc(C(=O)N4CCN(C(=O)CC5CCC(=O)N5)CC4)c(Cl)c3)n2C)c(F)c1F (stereo not shown) [Example 127, N-[3-chloro-4-[4-[2-(5-oxopyrrolidin-2-yl)acetyl]piperazine-1-carbonyl]phenyl]-5-(2,3-difluoro-4-methoxy-phenyl)-1-methyl-imidazole-2-carboxamide] |
| 270 | COc1ccc(-c2cnc(C(=O)Nc3ccc(C(=O)N4CCN(C(=O)CC5NC(=O)NC5=O)CC4)c(Cl)c3)n2C)c(F)c1F (stereo not shown) [Example 128, N-[3-chloro-4-[4-[2-(2,5-dioxoimidazolidin-4-yl)acetyl]piperazine-1-carbonyl]phenyl]-5-(2,3-difluoro-4-methoxy-phenyl)-1-methyl-imidazole-2-carboxamide] |
| 40 | COc1ccc(-c2cnc(C(=O)Nc3ccc(C(=O)N4CCN(C(=O)CC5CNC(=O)C5)CC4)c(Cl)c3)n2C)c(F)c1F (stereo not shown) [Example 129, N-[3-chloro-4-[4-[2-(5-oxopyrrolidin-3-yl)acetyl]piperazine-1-carbonyl]phenyl]-5-(2,3-difluoro-4-methoxy-phenyl)-1-methyl-imidazole-2-carboxamide] |
| 260 | COc1ccc(-c2cnc(C(=O)Nc3ccc(C(=O)N4CCN(C(=O)CCCC[C@@H]5SC[C@@H]6NC(=O)N[C@@H]65)CC4)c(Cl)c3)n2C)c(F)c1F [Example 130, N-[4-[4-[5-[(3aS,4S,6aR)-2-oxo-1,3,3a,4,6,6a-hexahydrothieno[3,4-d]imidazol-4-yl]pentanoyl]piperazine-1-carbonyl]-3-chloro-phenyl]-5-(2,3-difluoro-4-methoxy-phenyl)-1-methyl-imidazole-2-carboxamide] |
| 90 | COc1ccc(-c2cnc(C(=O)Nc3ccc(C(=O)N4CCN(C(=O)CCOCCOCCN)CC4)c(Cl)c3)n2C)c(F)c1F [Example 131, N-[4-[4-[3-[2-(2-aminoethoxy)ethoxy]propanoyl]piperazine-1-carbonyl]-3-chloro-phenyl]-5-(2,3-difluoro-4-methoxy-phenyl)-1-methyl-imidazole-2-carboxamide formate] |
| 70 | COc1ccc(-c2cnc(C(=O)Nc3ccc(C(=O)N4CCN(C(=O)C56CC(N)(C5)C6)CC4)c(Cl)c3)n2C)c(F)c1F [Example 132, N-[4-[4-(3-aminobicyclo[1.1.1]pentane-1-carbonyl)piperazine-1-carbonyl]-3-chloro-phenyl]-5-(2,3-difluoro-4-methoxy-phenyl)-1-methyl-imidazole-2-carboxamide formate] |
| 170 | COc1ccc(-c2cnc(C(=O)Nc3ccc(C(=O)N4CCN(C(=O)C5CNC(=O)N5)CC4)c(Cl)c3)n2C)c(F)c1F (stereo not shown) [Example 133, N-[3-chloro-4-[4-(2-oxoimidazolidine-4-carbonyl)piperazine-1-carbonyl]phenyl]-5-(2,3-difluoro-4-methoxy-phenyl)-1-methyl-imidazole-2-carboxamide] |
| 100 | COc1ccc(-c2cnc(C(=O)Nc3ccc(C(=O)N4CCN(C(=O)CCC#N)CC4)c(Cl)c3)n2C)c(F)c1F [Example 134, N-[3-chloro-4-[4-(3-cyanopropanoyl)piperazine-1-carbonyl]phenyl]-5-(2,3-difluoro-4-methoxy-phenyl)-1-methyl-imidazole-2-carboxamide] |
| 30 | COc1ccc(-c2cnc(C(=O)Nc3ccc(C(=O)N4CCN(C(=O)CCCNC(=N)N)CC4)c(Cl)c3)n2C)c(F)c1F [Example 135, N-[3-chloro-4-[4-(4-guanidinobutanoyl)piperazine-1-carbonyl]phenyl]-5-(2,3-difluoro-4-methoxy-phenyl)-1-methyl-imidazole-2-carboxamide formate] |
| 30 | Cn1c(-c2ccc(OCF)c(F)c2F)cnc1C(=O)Nc1ccc(C(=O)N2CCN(C(=O)C3[C@H]4CNC[C@@H]34)CC2)c(Cl)c1 (stereo partly drawn) [Example 136, N-[4-[4-[(1R,5S)-3-azabicyclo[3.1.0]hexane-6-carbonyl]piperazine-1-carbonyl]-3-chloro-phenyl]-5-[2,3-difluoro-4-(fluoromethoxy)phenyl]-1-methyl-imidazole-2-carboxamide formate] |
| 40 | COc1ccc(-c2cnc(C(=O)Nc3ccc(C(=O)N4CCN(C(=O)[C@H]5C[C@H](N)C5)CC4)c(Cl)c3)n2C)c(F)c1F [Example 137, N-[4-[4-(3-aminocyclobutanecarbonyl)piperazine-1-carbonyl]-3-chloro-phenyl]-5-(2,3-difluoro-4-methoxy-phenyl)-1-methyl-imidazole-2-carboxamide formate] |
| 30 | COc1ccc(-c2cnc(C(=O)Nc3ccc(C(=O)N4CCN(C(=O)[C@@H]5CCNC5)CC4)c(Cl)c3)n2C)c(F)c1F [Example 138, N-[3-chloro-4-[4-[(3R)-pyrrolidine-3-carbonyl]piperazine-1-carbonyl]phenyl]-5-(2,3-difluoro-4-methoxy-phenyl)-1-methyl-imidazole-2-carboxamide formate] |
| 40 | COc1ccc(-c2cnc(C(=O)Nc3ccc(C(=O)N4CCN(C(=O)[C@H]5CCNC5)CC4)c(Cl)c3)n2C)c(F)c1F [Example 139, N-[3-chloro-4-[4-[(3S)-pyrrolidine-3-carbonyl]piperazine-1-carbonyl]phenyl]-5-(2,3-difluoro-4-methoxy-phenyl)-1-methyl-imidazole-2-carboxamide formate] |
